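In this assay, cells in 96-well plates receive the compound at five concentrations for 48 hours. Endpoints are linearly interpolated between the surrounding concentrations. GI50 is the concentration that inhibits growth by half. TGI: concentration producing complete growth inhibition.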

Among the test systems are HOP-62 NSCLC; MALME-3M melanoma; T-47D breast; HL-60(TB) leukemia; RXF 393 renal; MCF7 breast; SK-OV-3 ovarian; DU-145 prostate; SR leukemia; MOLT-4 leukemia.
Common to all, as to experiment: growth of human tumour cells (NCI), 48 h

Take `O=[N+]([O-])c1ccc(N(CCO)CCO)c2c1no[n+]2[O-]`: the GI50 in the assay on HOP-62 NSCLC is 1.39 µM; in the assay on MALME-3M melanoma, 1.57 µM; in the assay on T-47D breast, 1.36 µM; in the assay on HL-60(TB) leukemia, 0.759 µM; with RXF 393 renal, 1320 nM; in the assay on MCF7 breast it was 1210 nM. Further, the GI50 is 1210 nM in the assay on SK-OV-3 ovarian, 1680 nM in the assay with DU-145 prostate, 0.215 µM with SR leukemia and 1270 nM in the assay on MOLT-4 leukemia. The TGI came out at 4.16 µM with HOP-62 NSCLC; 4.64 µM with MALME-3M melanoma; 5.46 µM in the assay on T-47D breast; 3.57 µM in the assay on HL-60(TB) leukemia; 4.84 µM with RXF 393 renal; 10.2 µM in the assay with MCF7 breast. The TGI with SK-OV-3 ovarian amounted to 4.14 µM; with DU-145 prostate, 5.64 µM; with SR leukemia, 0.899 µM; in the assay on MOLT-4 leukemia, 5.18 µM.
Take `O=S(=O)(Nc1ccc(Cl)c(C(F)(F)F)c1)c1ccc(-c2cnc(C3CC3)o2)cc1`: the GI50 was 0.615 µM with HOP-62 NSCLC; 0.624 µM with MALME-3M melanoma; 0.289 µM in the assay with T-47D breast; 0.261 µM in the assay on HL-60(TB) leukemia; 381 nM with RXF 393 renal; 132 nM in the assay on MCF7 breast. Also, the GI50 was 919 nM in the assay on SK-OV-3 ovarian, 1280 nM in the assay on DU-145 prostate, 0.0822 µM with SR leukemia and 622 nM in the assay on MOLT-4 leukemia. Besides, the TGI in the assay with HOP-62 NSCLC turned out to be 4.88 µM; in the assay on MALME-3M melanoma it was 4.41 µM; in the assay with T-47D breast, 8.92 µM; in the assay on HL-60(TB) leukemia, 1.49 µM; with RXF 393 renal, 1.66 µM; in the assay on MCF7 breast, 5.23 µM. In addition, the TGI in the assay with SK-OV-3 ovarian is 5.18 µM; in the assay with DU-145 prostate it was 10.6 µM; in the assay on SR leukemia, over 23 µM; in the assay on MOLT-4 leukemia, 14.1 µM.
As to `Cc1cc(NC(=O)CCc2ccc(N3C(N)=NC(N)=NC3(C)C)cc2)ccc1S(=O)(=O)F`, the GI50 in the assay on HOP-62 NSCLC is 20.9 µM; in the assay on MALME-3M melanoma, over 89.4 µM; in the assay with T-47D breast, 10.6 µM; in the assay with HL-60(TB) leukemia, 3.45 µM; with RXF 393 renal, 1350 nM; in the assay on MCF7 breast it was 115 nM. The GI50 in the assay on SK-OV-3 ovarian was 4580 nM; with DU-145 prostate, 2630 nM; in the assay with SR leukemia it was over 100 µM; in the assay with MOLT-4 leukemia, 1270 nM. Further, the TGI is over 100 µM in the assay on HOP-62 NSCLC; over 100 µM with MALME-3M melanoma; over 100 µM in the assay on T-47D breast; over 100 µM in the assay with HL-60(TB) leukemia; over 100 µM in the assay on RXF 393 renal; over 25.1 µM in the assay with MCF7 breast. In addition, the TGI with SK-OV-3 ovarian, with DU-145 prostate, with SR leukemia and in the assay with MOLT-4 leukemia was over 100 µM each time.
On to `O=c1cccc(C#CCCCCOC2CCCO2)o1` (stereo not given), for which the GI50 in the assay with HOP-62 NSCLC was 7.88 µM; in the assay on MALME-3M melanoma, 16.5 µM; with T-47D breast it was 22.7 µM; with HL-60(TB) leukemia it was 20.7 µM; with RXF 393 renal it was 6770 nM; with MCF7 breast it was 8730 nM. The GI50 was over 30400 nM in the assay on SK-OV-3 ovarian, 10300 nM in the assay on DU-145 prostate, 20.4 µM with SR leukemia and 8060 nM with MOLT-4 leukemia. Also, the TGI in the assay with HOP-62 NSCLC was 18.2 µM; in the assay with MALME-3M melanoma, 47 µM; in the assay with T-47D breast it was over 48.8 µM; with HL-60(TB) leukemia, 52.9 µM; in the assay with RXF 393 renal it was 50.2 µM; in the assay with MCF7 breast, over 100 µM. In addition, the TGI with SK-OV-3 ovarian was over 54.1 µM; in the assay with DU-145 prostate, over 80 µM; with SR leukemia, over 100 µM; in the assay on MOLT-4 leukemia, over 30.8 µM.
In the case of `C=CCSc1n[nH]c(-c2cccs2)n1`, the GI50 was over 100 µM in the assay on HOP-62 NSCLC; over 100 µM in the assay on MALME-3M melanoma; over 100 µM in the assay on T-47D breast; over 100 µM in the assay with HL-60(TB) leukemia; over 100000 nM with RXF 393 renal; over 100000 nM with MCF7 breast. Also, the GI50 in the assay with SK-OV-3 ovarian is over 100000 nM; in the assay with DU-145 prostate, over 100000 nM; in the assay with SR leukemia it was over 100 µM; in the assay with MOLT-4 leukemia it was over 100000 nM. In addition, the TGI in the assay with HOP-62 NSCLC, with MALME-3M melanoma, in the assay on T-47D breast, in the assay on HL-60(TB) leukemia, in the assay on RXF 393 renal and in the assay on MCF7 breast was over 100 µM each time. Further, the TGI in the assay on SK-OV-3 ovarian, with DU-145 prostate, in the assay on SR leukemia and in the assay on MOLT-4 leukemia was over 100 µM each time.
Take `C=C1CC2(OC1=O)c1ccccc1CCc1ccccc12`: the TGI came to 44 µM in the assay with HOP-62 NSCLC; 4.25 µM in the assay with MALME-3M melanoma; 3.6 µM with T-47D breast; 3.26 µM in the assay with HL-60(TB) leukemia; 3.07 µM with RXF 393 renal; 16.2 µM with MCF7 breast. The TGI in the assay on SK-OV-3 ovarian turned out to be 31.9 µM; in the assay with DU-145 prostate, 32.7 µM; in the assay on SR leukemia it was 2.3 µM; in the assay with MOLT-4 leukemia, 7.18 µM.
On to `O=C1OC(c2ccc([N+](=O)[O-])cc2)=N/C1=C\c1ccc(O)cc1`, for which the TGI with HOP-62 NSCLC, with MALME-3M melanoma, in the assay with T-47D breast, in the assay with HL-60(TB) leukemia, with RXF 393 renal and in the assay with MCF7 breast was over 100 µM throughout. Further, the TGI with SK-OV-3 ovarian, with DU-145 prostate, with SR leukemia and in the assay on MOLT-4 leukemia was over 100 µM throughout.
As to `CCC(=S)N(C)O`, the TGI in the assay with HOP-62 NSCLC was over 95.3 µM; in the assay on MALME-3M melanoma, over 100 µM; in the assay on T-47D breast, over 100 µM; in the assay with HL-60(TB) leukemia, 13.6 µM; with RXF 393 renal it was over 100 µM; in the assay with MCF7 breast it was over 100 µM. Moreover, the TGI is over 100 µM with SK-OV-3 ovarian, over 100 µM with DU-145 prostate, 24.1 µM in the assay on SR leukemia and 46.9 µM in the assay on MOLT-4 leukemia.
In the case of `O=C(O)[C@@H]1C[C@@H](O)CN1`, the TGI with HOP-62 NSCLC, in the assay with MALME-3M melanoma, in the assay on T-47D breast, with HL-60(TB) leukemia, in the assay on RXF 393 renal and in the assay with MCF7 breast was over 100 µM in each case. The TGI in the assay with SK-OV-3 ovarian, in the assay on DU-145 prostate, in the assay on SR leukemia and with MOLT-4 leukemia was over 100 µM throughout.

These data come from PubChem BioAssay (NCI).
